Experimental data published in PubChem BioAssay (NCI).
“And” between values parts separate entries of the source, which are not always exact repeats. Equal values may be shown once.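 In this assay, cells in 96-well plates receive the compound at five concentrations for 48 hours. Endpoints are linearly interpolated between the surrounding concentrations. Abbreviation: GI50, concentration required for 50% inhibition of growth. At the TGI there is no net growth.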

Legend:
Experiment in all cases: NCI anticancer screen, dose series, 48 h
HOP-62 NSCLC = system: HOP-62 NSCLC
MDA-MB-435 = system: MDA-MB-435
NCI-H23 lung = system: NCI-H23 lung
OVCAR-4 ovarian = system: OVCAR-4 ovarian
OVCAR-5 ovarian = system: OVCAR-5 ovarian
OVCAR-8 ovarian = system: OVCAR-8 ovarian
SF-268 CNS = system: SF-268 CNS
SF-295 CNS = system: SF-295 CNS
SW-620 colon = system: SW-620 colon
UACC-62 melanoma = system: UACC-62 melanoma

Row | Compound | GI50 (HOP-62 NSCLC) | TGI (HOP-62 NSCLC) | GI50 (MDA-MB-435) | TGI (MDA-MB-435) | GI50 (NCI-H23 lung) | TGI (NCI-H23 lung) | GI50 (OVCAR-4 ovarian) | TGI (OVCAR-4 ovarian) | GI50 (OVCAR-5 ovarian) | TGI (OVCAR-5 ovarian) | GI50 (OVCAR-8 ovarian) | TGI (OVCAR-8 ovarian) | GI50 (SF-268 CNS) | TGI (SF-268 CNS) | GI50 (SF-295 CNS) | TGI (SF-295 CNS) | GI50 (SW-620 colon) | TGI (SW-620 colon) | GI50 (UACC-62 melanoma) | TGI (UACC-62 melanoma)
1 | CCC1CCc2nc3sc(C(=O)Nc4ccccc4F)c(N)c3cc2C1 (configuration not stated) | > 100 µM | > 100 µM | 0.133 µM | 0.562 µM | > 100 µM | > 100 µM | > 100 µM | > 100 µM | 22.8 µM | > 100 µM | > 100 µM | > 100 µM | 16.8 µM | > 100 µM | 0.669 µM | > 100 µM | 0.819 µM | > 100 µM | 0.523 µM | > 100 µM
2 | O=C(OC(C(=O)O)C(OC(=O)c1ccccc1)C(=O)O)c1ccccc1 (configuration not stated) (tested in a mixture with another compound) | – | > 100 µM | – | 62.7 µM | – | > 100 µM and 84.2 µM | – | > 100 µM | – | > 100 µM | – | > 100 µM | – | > 100 µM | – | > 100 µM | – | > 100 µM | – | > 100 µM
3 | C=C(C)C(=O)NC(N)=NC#N | 206 µM | 362 µM | – | 259 µM | 147 µM | 301 µM | 140 µM | 35.7 µM and 295 µM | – | 304 µM | 119 µM | > 90 µM and 287 µM | 139 µM | 62.5 µM and 354 µM | 179 µM | 330 µM | 41 µM | 39.4 µM and 170 µM | 87 µM | > 81.7 µM and 230 µM
4 | N=c1nc(N)c2cc3c(N)nc(=N)c3cc12 | – | 38.5 µM | – | > 100 µM | – | > 100 µM | – | 51.2 µM | – | 73.9 µM | – | 35 µM | – | 13.1 µM | – | 51 µM | – | 44 µM | – | 23.5 µM
5 | Nc1ccccc1NC(=O)c1ccc(CSc2nc(N3CCOCC3)c3cccn3n2)cc1 | 1.49 µM | 45.9 µM | 0.27 µM | 1 µM | 1.52 µM | > 100 µM | 2.47 µM | > 100 µM | 0.985 µM | > 100 µM | 0.509 µM | > 100 µM | 0.732 µM | 10.5 µM | 1.6 µM | 17.2 µM | 0.44 µM | > 100 µM | 0.412 µM | 2.82 µM
6 | CC1(C)SC2C(C(=O)O)N=C(Cc3ccccc3)N2C1C(=O)O (configuration not stated) | – | > 100 µM | – | > 100 µM | – | > 100 µM | – | > 100 µM | – | > 100 µM | – | > 100 µM | – | 98.1 µM | – | > 100 µM | – | > 100 µM | – | > 100 µM
7 | CN1CCN(C(=O)c2ccc(NC(=O)Nc3ccc(N(C)c4ccnc(Nc5ccc(CS(C)(=O)=O)cc5)n4)cc3)cc2)CC1 | 7.61 µM | > 25 µM | > 25 µM | > 25 µM | 19 µM | > 25 µM | 8.15 µM | > 25 µM | > 25 µM | > 25 µM | 7.22 µM | > 24 µM | 9.95 µM | > 25 µM | > 22.5 µM | > 25 µM | 11 µM | > 25 µM | 9.99 µM | > 25 µM
8 | O=C1C=C(Nc2ccccc2)c2ncccc2C1=O | 0.376 µM | 1.49 µM | 0.178 µM | 0.323 µM | 0.307 µM | 1.31 µM | 0.321 µM | 1.11 µM | 1.74 µM | 3.4 µM | 0.373 µM | 1.4 µM | 0.446 µM | 1.8 µM | 1.31 µM | 2.6 µM | 0.34 µM | 1.28 µM | 0.224 µM | 0.521 µM
9 | CCc1ccc(C2=C/C(=C/c3ccc(Cl)cc3)C(=O)N2CCc2ccc(S(N)(=O)=O)cc2)cc1 | 2.42 µM | 5.86 µM | 2.15 µM | 4.81 µM | 2.45 µM | 7.46 µM | 2.56 µM | 8.03 µM | 2.18 µM | 5.7 µM | 3.2 µM | 13.1 µM | 4.63 µM | 25.9 µM | 1.77 µM | 3.72 µM | 3 µM | 11.8 µM | 1.82 µM | 6.22 µM
10 | CS(=O)(=O)c1ccc(N/N=C/c2c(-c3ccc(S(C)(=O)=O)cc3)[nH]c3ccc(F)cc23)cc1 | 2.17 µM | > 50 µM | 3.12 µM | > 50 µM | 2.84 µM | > 50 µM | 1.97 µM | > 50 µM | > 50 µM | > 50 µM | 1.24 µM | > 50 µM | 3.4 µM | > 50 µM | 0.934 µM | 1.89 µM | 4.57 µM | > 50 µM | 1.91 µM | > 50 µM
11 | O=C(O)C1C2C=CC(O2)C1C(=O)Nc1ccccc1 (configuration not stated) | – | > 100 µM | – | > 100 µM | – | > 100 µM | – | > 100 µM | – | > 100 µM | – | > 100 µM | – | > 100 µM | – | > 100 µM | – | > 100 µM | – | > 100 µM
12 | CNC(=O)c1ccc(Nc2ncc(C(F)(F)F)c(NCc3nccnc3N(C)S(C)(=O)=O)n2)cc1 | 2.16 µM and 2.07 µM and 1.98 µM | > 10 µM and 9.71 µM and 9.8 µM | 3.55 µM and 3.05 µM and 2.67 µM | > 10 µM and 13.6 µM and 15.2 µM | 2.61 µM and 2.38 µM and 2.81 µM | 8.64 µM and 7 µM | 5.37 µM and 2.41 µM and 1.9 µM | > 10 µM and 12.8 µM and 10.5 µM | 2.18 µM and 1.98 µM and 1.93 µM | > 10 µM and 9.03 µM and 9.56 µM | 3.44 µM and 3.69 µM and 3.83 µM | > 10 µM and 13.6 µM and 18 µM | 2.89 µM and 2.23 µM and 2.73 µM | > 10 µM and 8.63 µM and 11 µM | 3.04 µM and 2.6 µM and 2.61 µM | > 10 µM and 10.9 µM and 12.9 µM | 2.82 µM and 3.21 µM and 2.74 µM | > 10 µM and 9.82 µM and 11.7 µM | 1.76 µM and 1.66 µM and 1.63 µM | > 10 µM and 4.37 µM and 4.24 µM
13 | Cc1cc(NC(=O)c2ccc(NS(=O)(=O)CCO)cc2N2CCC3(CC2)CC3)nc(N2CCC(F)(F)CC2)n1 | 13.7 µM | 30.4 µM | 0.903 µM | 18.5 µM | 12.6 µM | 26.6 µM | 14.2 µM | 27.7 µM | 11.4 µM | 23.6 µM | 0.114 µM | 24.4 µM | 13.1 µM | 29 µM | 12.3 µM | 27.3 µM | 13.1 µM | 27.1 µM | 12.3 µM | 24.9 µM
14 | CCCCCCCCCCCCCOC(=O)c1c(C)[nH]c(/C=C2\N=C(c3ccc[nH]3)C=C2OC)c1C | 0.801 µM | 14.2 µM | 0.0411 µM | > 100 µM | 0.244 µM | 31.4 µM | 0.425 µM | > 100 µM | 0.0929 µM | > 100 µM | 0.0454 µM | – | 0.109 µM | > 59 µM | 1.75 µM | 37.7 µM | 0.0204 µM | > 37.1 µM | 0.0329 µM | 0.139 µM
15 | CC[C@H](C)c1occ2c(O)c(C(=O)O)c(=O)cc-2c1C | – | 69.1 µM | – | 58 µM | – | 43.1 µM | – | 68.2 µM | – | 36.7 µM | – | 41.4 µM | – | > 100 µM | – | 99.3 µM | – | 44.5 µM | – | 37.4 µM
